Source: US20030054411A1, “GPR motifs and uses thereof” (priority 2001, published 2003)

What was measured:
[1] = system: pheromone response pathway; assay: β-galactosidase reporter assays in yeast strains expressing different Gα subunits; format: cell-based, Saccharomyces cerevisiae; conditions: Gpa1, Gsα, Giα2, Giα3, Gα16 backgrounds
Excerpt: (§1) (A) Bioactivity of cDNA #37 and 53 in yeast strains expressing different Gα subunits. The Gpa1, Giα2Gpa1(1-41), Giα3Gpa1(1-41) and Gα16Gpa1(1-41) yeast strains expressed similar amounts of G-protein as determined by immunoblotting with Gpa1-specific antisera. Each series of experiments include data obtained in the absence of Gα to indicate the signal obtained when the action of Gβγ is not limited by reformation of heterotrimer. Data are presented as the mean±S.E.M of three experiments with duplicate determinations. (B) Interaction of AGS2 and AGS3 with G-proteins. AGS2 and the bioactive AGS3 peptide (74 amino acids) beginning at the first in frame methionine were generated as GST-fusion proteins in bacteria and purified using a glutathione affinity matrix. AGS2 and AGS3 GST fusion proteins were incubated with G-protein subunits (Gα=60-80 nM, Gβγ=40 nM, fusion protein=˜300 nM, total volume=250 ul) for 12 hrs at 4° C. GDP=10 uM. […] Giα2 was generated in Sf9 cells as an amino terminal his6-tagged protein and was detected on membrane transfers using anti-Xpress antisera (Invitrogen). Bovine brain Gβγ was detected on membrane transfers with Gβ antisera. […]
Generation and screening of cDNA libraries. […] The cDNAs conferring such a response were considered positive and were further evaluated by epistasis experiments in different yeast strains, nucleotide sequencing and RNA blot analysis. […]

[2] = system: brain Gβγ; assay: GST fusion protein interaction with purified brain Gβγ; format: binding, bovine; conditions: GST fusion protein ~300 nM, Gβγ 40 nM
Excerpt: as §1, with “uM. GTPγS=10 uM plus 5 mM MgCl2.” for “uM.”
Immunoblotting and G-protein interaction assays. […] Bound proteins were detected by immunoblotting membrane transfers with specific antisera. […]

Molecule: AGS2: Activator of G-protein Signalling 2, protein identical to mouse Tctex1, isolated from NG108-15 cDNA library
- activity in yeast strains expressing different Gα subunits [1]: active in each of the genetic backgrounds except Gpa1
- interaction with brain Gβγ [2]: directly bound

B1: AGS3: Activator of G-protein Signalling 3; bioactive 74 amino acid fragment isolated in yeast screen, tested as GST fusion (protein)
chain: MLIKYQSSRIDDQRCPPPDVLPRGPTMPDEDFFSLIQRVQAKRMDEQRVDLAGSPDQEASGLPDPRQQCPPGAS
modifications: left off: a dimerising Fc or GST
- activity in yeast strains expressing different Gα subunits [1]: only active in the Giα2 and Giα3 genetic backgrounds
- interaction with brain Gβγ [2]: did not interact
